Reference: patent publication US7018796B2, “Preincubation assay methods” (Shionogi & Co., Ltd., priority 2000, dated 2006)

Biological target: T1, HCV RNA-dependent RNA polymerase (Hepatitis C virus genotype 1a, UniProt P27958)
T1 construct: HCV RNA-dependent RNA polymerase is encoded in the NS5B (nonstructural protein 5B) region of HCV; made in house; host or cells: insect cells or E. coli
Assay: Pre-incubation assay method with 3H-UTP (Example 1)
Format: biochemical
Conditions: pre-incubation 25° C. 60 min, method of Example 1; for inhibition at 100 µg/mL: 100 μg/ml, read-out: Inhibition rate at a concentration of 100 μg/ml
Procedure: A HCV RNA-dependent RNA polymerase, template RNA, primer RNA and Mg ion (Mg^2+) are pre-incubated at approximately 25° C. for approximately 1 hour. After that, substrate RNA and a test substance are added to start an enzyme reaction and measure an enzyme activity. IC50 value can be calculated by comparing with an enzyme activity measured in the absence of a test substance as well as the above prior method. An inhibitor can be selected by comparing IC50. An example of a procedure of this method is shown in the later described Example 1.
A cDNA encoding HCV RNA-dependent RNA polymerase was made by use of HCV positive human plasma and HCV RNA-dependent RNA polymerase was expressed using the insect cells or the E. coli. HCV RNA-dependent RNA polymerase in the cell extract was purified by use of an anion exchange chromatography, a heparin affinity chromatography, a polyU affinity chromatography, a cation exchange chromatography and gel filtration chromatography. The purification was performed at 4° C. and Tris buffer (pH 7.5) containing ethylenediaminetetraacetic acid (1 mM), dithiothreitol (10 mM) and glycerol (20%) was used. The enzyme purified was stored at 4° C. until use for the assays.
• 1) The buffer I ^1) (10.5 μl) containing Tris-HCl (100 mM, pH 7.5), MgCl2 (25 mM), dithiothreitol (5 mM), KCl (125 mM) and ethylenediaminetetraacetic acid (5 mM) was transferred to a polypropylene tube and then poly(A)^2) solution (100 μg/ml, 10.5 μl), oligo(U)12 ^3) solution (1 μg/ml, 10.5 μl) and water (8 μl) were added into the tube and mixed. • 2) Next, HCV RNA-dependent RNA polymerase (10.5 μl) was added into the tube and pre-incubated at 25° C. for […]. • 3) The enzyme solution pre-incubated (50 μl) was added to a test compound (5.26 μl/well) dissolved with dimethyl sulfoxide or water in a well of a 96-wells microtiter plate. • 4) Additionally, the buffer II (10.6 μl) containing Tris-HCl (100 mM, pH 7.5), MgCl2 (25 mM), dithiothreitol (5 mM), KCl (125 mM), ethylenediaminetetraacetic acid (5 mM) and UTP • 4) (2.1 μM, 1 μCi ^3H-UTP), was mixed with water (39.4 μl). The mixture (50 μl) was added into the well and mix, and then the enzyme reaction was performed at 25° C. for 30 min. • 5) After enzyme reaction for 30 min, the enzyme reaction was stopped by adding disodium ethylenediaminetetraacetic acid (50 mM, 50 μl). • 6) By use of the cell-harvester, all volume of the enzyme reaction sample was transferred onto a filtermat bound with diethylaminoethyl base (referred to as DEAE-filtermat) and washed twice for 10 sec with sodium phosphate buffer (0.25 M, pH 7.0) and once for 10 sec with de-ionized water. • 7) The DEAE-filtermat was dried at 95° C. for 15 min and transferred into a sample bag with liquid scintillater (10 ml), and then a sample bag was sealed. • 8) The radio activity was measured by a scintillation counter. • 9) The inhibitory rate was calculated from the radioactivity measured (ccpm) as follows. [formula]
The concentration of compound at 50% inhibition (IC50 value) was calculated from the compound concentration used and the inhibitory rate calculated.
When use of a compound at a μg/ml results in A % inhibition and use of a compound at β μg/ml results in B % inhibition on condition of A≧50>B the IC50 value is obtained by the calculation as follows. IC50 (μg/ml)=10^[(50−B)/(A−B)×(log^α^−log^β^)+log^β^]

T1 sequence (P27958 2421-3011): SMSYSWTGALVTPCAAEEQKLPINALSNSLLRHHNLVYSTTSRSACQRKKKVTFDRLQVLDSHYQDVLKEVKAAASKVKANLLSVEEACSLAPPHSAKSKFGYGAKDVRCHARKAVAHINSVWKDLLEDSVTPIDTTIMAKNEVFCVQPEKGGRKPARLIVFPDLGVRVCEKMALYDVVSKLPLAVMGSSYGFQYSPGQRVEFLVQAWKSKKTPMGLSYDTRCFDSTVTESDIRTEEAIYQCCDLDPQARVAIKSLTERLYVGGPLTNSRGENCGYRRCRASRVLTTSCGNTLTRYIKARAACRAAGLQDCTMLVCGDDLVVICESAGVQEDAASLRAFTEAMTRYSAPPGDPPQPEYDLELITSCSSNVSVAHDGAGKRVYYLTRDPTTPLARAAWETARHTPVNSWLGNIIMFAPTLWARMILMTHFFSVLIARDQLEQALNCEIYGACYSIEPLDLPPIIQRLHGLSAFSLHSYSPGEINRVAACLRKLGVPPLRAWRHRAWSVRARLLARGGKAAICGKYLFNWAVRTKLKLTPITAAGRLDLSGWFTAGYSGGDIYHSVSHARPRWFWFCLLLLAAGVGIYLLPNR

SMILES | inhibition at 100 µg/mL [%] | IC50 [µM]
Nc1ccc(C(=O)C=C(O)C(=O)O)cc1 [Compound I-4] | > 99 | 6.76
O=C(O)C(O)=CC(=O)c1ccccc1 [Compound I-5] | 98 | 12
Cc1ccc(C(=O)C=C(O)C(=O)O)s1 [Compound I-6] | 97 | 14.6
O=C(O)C(O)=CC(=O)c1cc2ccccc2[nH]1 [Compound I-8] | 95 | 29.8
O=C(O)C(O)=CC(=O)c1ccc(Cl)cc1 [Compound I-9] | 94 | 31.3
O=C(O)C(O)=CC(=O)c1ccsc1 [Compound I-10] | 94 | 36.3
O=C(O)C(O)=CC(=O)c1cccc(Br)c1 [Compound I-14] | 93 | 32.8
O=C(O)C(O)=CC(=O)c1ccc[nH]1 [Compound I-16] | 92 | 55.2
COc1cc(C(=O)C=C(O)C(=O)O)ccc1O [Compound I-17] | 92 | 46.2

The remaining compounds from weak to strong by IC50, led by results:

inhibition at 100 µg/mL [%] | IC50 [µM] | SMILES
94 | 50.2 | Cn1cccc1C(=O)C=C(O)C(=O)O [Compound I-15]
90 | 49.8 | O=C(O)C(O)=CC(=O)c1ccc(Cl)cc1Cl [Compound I-18]
92 | 43.9 | O=C(O)C(O)=CC(=O)c1cccs1 [Compound I-13]
94 | 37.8 | COc1cccc(C(=O)C=C(O)C(=O)O)c1 [Compound I-12]
94 | 35.2 | O=C(O)C(O)=CC(=O)c1ccc(F)cc1 [Compound I-11]
95 | 28.5 | O=C(O)C(O)=CC(=O)c1ccc2ccccc2c1 [Compound I-7]
99 | 4.85 | Cc1ccc(C(=O)C=C(O)C(=O)O)cc1 [Compound I-3]
99 | 4.32 | O=C(O)C(O)=CC(=O)c1ccc(O)cc1 [Compound I-2]
